Reference: US20220265668A1, “TREATMENT AND/OR PREVENTION OF LESIONS IN THE CENTRAL AUDITORY NERVOUS SYSTEM” (SENSORION, priority 2019, published 2022)

Experiments:
[1] = system: young adult NMRI mice having undergone an acoustic trauma; test: Frequency specific ABR thresholds after noise trauma; format: in vivo; conditions: 26.4 mg/kg peroral once daily for 14 days after noise trauma (4-20 kHz, 115 dB SPL, 3 h); compared to placebo; FIG. 1
Experimental: 12 animals per group (young adult Naval Medical Research Institute (NMRI) mice), 96 animals in total.
Frequency specific ABR-thresholds at 4; 8; 12; 16; 20; 24; 28; 32 kHz under anesthesia (Ketamine/Xylazine). At least 3 measurements per frequency were performed.
(§1) Noise application was performed for 3 h under anesthesia, using a broad band noise 4-20 kHz, 115 dB SPL, free-field.
(§2) Post-traumatic (0; 24 h; 48 h or 72 h after noise exposure) initiation of oral administration of 26.4 mg/kg (R)-azasetron besylate or of the related placebo formulation, respectively, was performed once daily. Treatments were continued daily for 14 days. • Treatment (T) group 1 +Placebo (P) group 1: Treatment from d1-d14 • Treatment (T) group 2 +Placebo (P) group 2: Treatment from d2-d15 • Treatment (T) group 3 +Placebo (P) group 3: Treatment from d3-d16 • Treatment (T) group 4 +Placebo (P) group 4: Treatment from d4-d17

[2] = system: outer hair cells (OHC) in the cochlea; test: Cochlear hair cell loss (cochleogram) after noise trauma; format: in vivo, mice; conditions: 26.4 mg/kg peroral once daily for 14 days after noise trauma; at growing distances from the apex; vs placebo; FIG. 2
Experimental: as §1, §2
(§3) Six animals per group (48 in total) have been perfused via the left hearth chamber with a fixative solution (paraformaldehyde (4%)) on day 15.
(§4) Cochleae and brains were prepared (cutting, staining), as disclosed in Gröschel et al. (2010).

[3] = system: neuronal cells in the ventral cochlear nucleus (VCN); test: Neuronal cell density in the ventral cochlear nucleus (VCN) after noise trauma; format: in vivo, mice
Experimental: as §1, §2, §3, §4

[4] = system: neuronal cells in the inferior colliculus (IC); test: Neuronal cell density in the inferior colliculus (IC) after noise trauma; format: in vivo, mice; conditions: 26.4 mg/kg peroral once daily for 14 days, initiated 0 h, 24 h, 48 h or 72 h after acoustic trauma; compared to placebo; FIG. 5
Experimental: as §1, §2, §3, §4

SMILES	threshold shift of the auditory brainstem response [1]	loss of outer hair cells (OHC) in the cochlea [2]	destruction of neuronal cells in the VCN (normalized cell densities per grid) ([3]; 26.4 mg/kg peroral once daily for 14 days, initiated immediately or 24/48/72 h after acoustic trauma, vs placebo, FIGS. 3 and 4)	destruction of neuronal cells in the IC (normalized cell densities per grid) [4]	loss of neurons in the brainstem ([3]; administration upon the onset of lesions after acoustic trauma, summary in discussion (VCN and IC))
CN1C(=O)COc2c(C(=O)N[C@H]3CN4CCC3CC4)cc(Cl)cc21 [(R)-azasetron besylate]	does not significantly affect	affects the loss of outer hair cells	reduces the destruction of neuronal cells	reduces the destruction of neuronal cells	–
CN1C(=O)COc2c(C(=O)NC3CN4CCC3CC4)cc(Cl)cc21 (centres unmarked) [azasetron, N-(1-azabicyclo[2.2.2]octan-8-yl)-6-chloro-4-methyl-3-oxo-1,4-benzoxazine-8-carboxamide, reference compound]	–	–	–	–	significantly reduce the loss of neurons
